{"source": "patent US20260216166A1", "about": "“COMPOUND FOR TREATMENT OF ERECTILE DYSFUNCTION” (Initiator Pharma A/S, priority 2023, published 2026)", "key": {"[1]": {"assay": "Phase II single oral dose pharmacokinetics in male patients with ED", "type": "in vivo", "conditions": "human, plasma, 10 mg single oral dose; for Tmax: male, po, 10 mg", "procedure": "(§1) The study was an exploratory Phase II, randomised, placebo-controlled, double-blind, crossover study, investigating the effects of a single oral dose of IP2015 on erectile function in males with ED. A dose level of 10 mg was selected. Patients were enrolled into two cohorts. Both cohorts participated in two periods (Period 1 and Period 2) and received a single dose of IP2015 and a single dose of placebo.\nThe IP2015 at a dose of 10 mg or matched placebo was administered once on the morning of Day 1 (in Period 1 and Period 2) as an oral solution in the fasted state. The dose was taken with 240 ml of water at room temperature. Subjects/patients were fasted overnight prior to dosing until 4 hours postdose. Water was allowed ad libitum except for 1 hour before and 1 hour after dosing.\nThe study also evaluated the plasma PK concentrations and parameters including but not limited to; AUC0-t, AUC0-∞, Cmax, tmax and T½ in male patients with ED. Blood samples for the determination of plasma concentrations of IP2015 were collected at predose, and 1, 4, 8 (post-stimulus challenge), and 24 hours postdose in each treatment period. The exploratory endpoint was the possible relationship between plasma PK levels and PD response as measured by RigiScan data.\nPlasma samples for the determination of concentrations of IP2015 were analysed by using a validated liquid chromatography-tandem mass spectrometry method. The RigiScan Plus Monitor was used for efficacy during the stimulus challenge.\n(§2) Safety parameters were listed and summarised using descriptive statistics. Pharmacokinetic parameter estimates were calculated using noncompartmental methods. Pharmacokinetic data were listed for each subject/patient and summarised by descriptive statistics."}, "[2]": {"system": "male subjects with erectile dysfunction (ED)", "assay": "IIEF-15 questionnaire after repeat single oral doses in male subjects with ED", "type": "in vivo, human", "text": "The international index of erectile function (IIEF-15) questionnaire is a validated, multi-dimensional, self-administered investigation that has been found useful in the clinical assessment of erectile dysfunction and treatment outcomes in clinical trials. A score of 0-5 is awarded to each of the 15 questions that examine the main domains of male sexual function: erectile function, orgasmic function, sexual desire and intercourse satisfaction.\n(§3) 130 subjects were divided into 3 groups upon which the study was conducted in parallel. Each subject was dosed on four occasions with either 5 mg IP2015, 10 mg IP2015 or matched placebo. In each group, subjects were randomised evenly to each of the three study treatments and received the same treatment at each visit.\nThe study lasted approximately 8 weeks and consisted of the following: • A screening visit (up to 21 days prior to the baseline visit) • A baseline visit (Day −7). • Outpatient visits on Week 1 (Day 1), Week 2, Week 3 and Week 4 • A follow-up visit a minimum of 7 to 10 days after their final dose.\nOn Day-7, and at the Week 1 (Day 1), Week 2, Week 3, Week 4 and Follow-up visits, all groups were asked to complete the IIEF-15 questionnaire. Group 2 was asked to complete a Visual Stimulation Assessment using a RigiScan Plus Monitor on Day-7, Week 1 (Day 1) and Week 4. Group 2 was also required to provide blood samples for pharmacokinetic assessment on Week 1 (Day 1) and Week 4. Group 3 was required to provide semen samples on Day-7 and Week 4.\n(§4) There were three potential study treatments of 5 mg IP2015, 10 mg IP2015 or matched placebo. In each group, subjects were randomised evenly to each of the three study treatments and received the same treatment on each visit. IP2015 or matched placebo was administered once in the morning of Week 1 (Day 1), Week 2, Week 3, and Week 4 as an oral solution in the fasted state. The dose was taken with 240 ml of water at room temperature. Subjects had fasted 2 hours prior to dosing until 4 hours postdose. Water was allowed ad libitum except for 1 hour before and 1 hour after dosing.\n(§5) Efficacy was assessed through the International Index of Erectile Function (IIEF)-15 questionnaire. The change from baseline in responses to questions of the IIEF-15 questionnaire, including questions regarding erectile function, orgasmic function, sexual desire, intercourse satisfaction and overall satisfaction domain scores, was determined at different time points of the study. RigiScan assessments during the stimulus assessment, and sperm count and motility by semen sample collection was used for efficacy evaluation. Safety was assessed through AE reporting, 12-lead ECG, vital signs, physical examinations and clinical laboratory evaluations. Pharmacokinetics was assessed by blood sampling.\nThe results are means±SE. The statistical differences were performed with Mixed Model Repeated Measures (MMRM)."}, "[3]": {"system": "male subjects with erectile dysfunction (ED)", "assay": "Treatment-emergent adverse events after repeat single oral doses in male subjects with ED", "type": "in vivo, human", "procedure": "Treatment-related adverse events are adverse events which could either be possibly or probably related to the treatment.\nas §3, §4, §5"}, "male patients with ED": {"system": "male patients with ED", "assay": "Phase II single oral dose safety in male patients with ED", "type": "in vivo, human", "procedure": "as §1\nThe study evaluated the efficacy data from RigiScan assessments in male patients with ED and the clinical safety data from AE reporting, 12-lead ECGs, vital signs, physical examinations and clinical laboratory evaluations in male patients with ED.\nas §2"}, "[4]": {"conditions": "overall, crossover 10 mg IP2015 and placebo"}, "[5]": {"conditions": "overall, crossover 10 mg IP2015 and placebo, 12 patients"}}, "note": "“Also recorded” adds a separate entry of the source. Read-outs that look alike come from different tables or passages of the source.", "data": [{"compound": "COc1cc2ccc(OC3CC4CCC(C3)N4)cc2oc1=O", "note": "(centres unmarked) [IP2015, 7-[(8-azabicyclo[3.2.1]octan-3-yl)oxy]-3-methoxy-chromen-2-one]", "values": [{"measurement": "Cmax", "setting": "[1]", "value": 15.7, "unit": "ng/mL"}, {"measurement": "AUC(0-t)", "setting": "[1]; read-out: mean AUC0-t", "value": 287, "unit": "ng·h/mL"}, {"measurement": "Tmax", "setting": "[1]; read-out: median tmax", "value": 4, "unit": "h"}, {"measurement": "Tmax", "setting": "[1]; read-out: tmax range", "value": "1 to 8.53", "unit": "h"}, {"measurement": "efficacy in treating erectile dysfunction", "setting": "[2]; 5 mg individual doses, human subjects, compared to placebo", "value": "effective in the treatment of erectile dysfunction; also recorded: effective in treating erectile dysfunction"}, {"measurement": "overall response to questions of IIEF-15 versus baseline", "setting": "[2]; 5 mg, at follow-up, p=0.0046", "value": "significant"}, {"measurement": "overall response to questions of IIEF-15 versus placebo", "setting": "[2]; 5 mg, at follow-up, p=0.07", "value": "tendency"}, {"measurement": "IIEF-15 overall score versus baseline", "setting": "[2]; 5 mg, p=0.0032", "value": "the same was the case"}, {"measurement": "IIEF-15 Q4 (ability to maintain erection), overall score versus baseline", "setting": "[2]; 5 mg, p=0.056", "value": "tendency to difference"}, {"measurement": "IIEF-15 overall score versus placebo", "setting": "[2]; 5 mg, p=0.10", "value": "tendency"}, {"measurement": "IIEF-15 Q4, overall score compared to placebo", "setting": "[2]; 5 mg, p=0.44", "value": "no difference"}, {"measurement": "IIEF-15 Q3, overall score", "setting": "[2]; 5 mg, versus placebo (p=0.07) and versus baseline (p=0.07)", "value": "tendency to difference"}, {"measurement": "IIEF-15 Q3 (ability to penetrate), change from baseline", "setting": "[2]; 5 mg, week 3, versus placebo (p=0.034) and versus baseline (p=0.046)", "value": "significant effect"}, {"measurement": "overall IIEF-15 score change", "setting": "[2]; low dose of IP2015, clinically significant", "value": 2}, {"measurement": "Any TEAE, number of events", "setting": "[3]; 5 mg, N = 42", "value": 61}, {"measurement": "Any TEAE, subjects (%)", "setting": "[3]; 5 mg, N = 42", "value": "32 (76.2%)"}, {"measurement": "Dizziness, number of events", "setting": "[3]; 5 mg, N = 42", "value": 3}, {"measurement": "Dizziness, subjects (%)", "setting": "[3]; 5 mg, N = 42", "value": "3 (7.1%)"}, {"measurement": "Headache, number of events", "setting": "[3]; 5 mg, N = 42", "value": 15}, {"measurement": "Headache, subjects (%)", "setting": "[3]; 5 mg, N = 42", "value": "11 (26.2%)"}, {"measurement": "Mild TEAE, number of events", "setting": "[3]; 5 mg, N = 42", "value": 56}, {"measurement": "Mild TEAE, subjects (%)", "setting": "[3]; 5 mg, N = 42", "value": "29 (69.0%)"}, {"measurement": "Moderate TEAE, number of events", "setting": "[3]; 5 mg, N = 42", "value": 5}, {"measurement": "Moderate TEAE, subjects (%)", "setting": "[3]; 5 mg, N = 42", "value": "3 (7.1%)"}, {"measurement": "Nausea, number of events", "setting": "[3]; 5 mg, N = 42", "value": 1}, {"measurement": "Nausea, subjects (%)", "setting": "[3]; 5 mg, N = 42", "value": "1 (2.4%)"}, {"measurement": "Related TEAE, number of events", "setting": "[3]; 5 mg, N = 42", "value": 19}, {"measurement": "Related TEAE, subjects (%)", "setting": "[3]; 5 mg, N = 42", "value": "10 (23.8%)"}, {"measurement": "Severe TEAE", "setting": "[3]; 5 mg, N = 42", "value": 0}, {"measurement": "TEAEs, high dose compared to low dose", "setting": "[3]; 10 mg versus 5 mg", "value": "slightly increased in the high dose compared to the low dose"}, {"measurement": "Any TEAE, number of events", "setting": "[3]; 10 mg, N = 43", "value": 141}, {"measurement": "Any TEAE, subjects (%)", "setting": "[3]; 10 mg, N = 43", "value": "34 (79.1%)"}, {"measurement": "Dizziness, number of events", "setting": "[3]; 10 mg, N = 43", "value": 15}, {"measurement": "Dizziness, subjects (%)", "setting": "[3]; 10 mg, N = 43", "value": "12 (27.9%)"}, {"measurement": "Headache, number of events", "setting": "[3]; 10 mg, N = 43", "value": 27}, {"measurement": "Headache, subjects (%)", "setting": "[3]; 10 mg, N = 43", "value": "16 (37.2%)"}, {"measurement": "Mild TEAE, number of events", "setting": "[3]; 10 mg, N = 43", "value": 132}, {"measurement": "Mild TEAE, subjects (%)", "setting": "[3]; 10 mg, N = 43", "value": "33 (76.7%)"}, {"measurement": "Moderate TEAE, number of events", "setting": "[3]; 10 mg, N = 43", "value": 9}, {"measurement": "Moderate TEAE, subjects (%)", "setting": "[3]; 10 mg, N = 43", "value": "7 (16.3%)"}, {"measurement": "Nausea, number of events", "setting": "[3]; 10 mg, N = 43", "value": 15}, {"measurement": "Nausea, subjects (%)", "setting": "[3]; 10 mg, N = 43", "value": "8 (18.6%)"}, {"measurement": "Related TEAE, number of events", "setting": "[3]; 10 mg, N = 43", "value": 84}, {"measurement": "Related TEAE, subjects (%)", "setting": "[3]; 10 mg, N = 43", "value": "23 (53.5%)"}, {"measurement": "Severe TEAE", "setting": "[3]; 10 mg, N = 43", "value": 0}, {"measurement": "severe side effects", "setting": "[3]; any of the doses (5 mg, 10 mg)", "value": "No severe side effects were observed; also recorded: No severe TEAEs were present"}, {"measurement": "treatment-emergent adverse effects versus placebo group", "setting": "[3]; low-dose (5 mg)", "value": "comparable to the placebo group"}, {"measurement": "heart rate, increase from baseline", "setting": "male patients with ED; 10 mg, 8 hours postdose", "value": 14.56, "unit": "bpm"}, {"measurement": "RR, PR, QRS, QT and QTcF intervals, IP2015 versus placebo", "setting": "male patients with ED; male patients with ED, 10 mg", "value": "no significant treatment-related differences"}, {"measurement": "haematology, serum biochemistry or urinalysis data", "setting": "male patients with ED; male patients with ED, 10 mg", "value": "no significant treatment- or dose-related trends"}, {"measurement": "standing and supine pulse rate", "setting": "male patients with ED; male patients with ED, 10 mg", "value": "apparent treatment-related increase"}, {"measurement": "systolic blood pressure, diastolic blood pressure and oral temperature, IP2015 versus placebo", "setting": "male patients with ED; male patients with ED, 10 mg", "value": "no significant treatment-related differences"}, {"measurement": "deaths or SAEs", "setting": "male patients with ED; [4]", "value": "No deaths or SAEs were reported"}, {"measurement": "severity of TEAEs", "setting": "male patients with ED; [4]", "value": "All events were mild in severity"}, {"measurement": "number of TEAEs", "setting": "male patients with ED; [5]", "value": 19}, {"measurement": "patients experiencing TEAEs", "setting": "male patients with ED; [5]", "value": "9 (75.0%)"}]}]}
